8 compounds from ChEMBL document CHEMBL3399996, “Marine natural products as inhibitors of cystathionine beta-synthase activity” (Bioorg Med Chem Lett, 2015) can be followed below.

This test concerns the target T1, Cystathionine beta-synthase (Homo sapiens, UniProt P35520).
T1 sequence (P35520 whole entry): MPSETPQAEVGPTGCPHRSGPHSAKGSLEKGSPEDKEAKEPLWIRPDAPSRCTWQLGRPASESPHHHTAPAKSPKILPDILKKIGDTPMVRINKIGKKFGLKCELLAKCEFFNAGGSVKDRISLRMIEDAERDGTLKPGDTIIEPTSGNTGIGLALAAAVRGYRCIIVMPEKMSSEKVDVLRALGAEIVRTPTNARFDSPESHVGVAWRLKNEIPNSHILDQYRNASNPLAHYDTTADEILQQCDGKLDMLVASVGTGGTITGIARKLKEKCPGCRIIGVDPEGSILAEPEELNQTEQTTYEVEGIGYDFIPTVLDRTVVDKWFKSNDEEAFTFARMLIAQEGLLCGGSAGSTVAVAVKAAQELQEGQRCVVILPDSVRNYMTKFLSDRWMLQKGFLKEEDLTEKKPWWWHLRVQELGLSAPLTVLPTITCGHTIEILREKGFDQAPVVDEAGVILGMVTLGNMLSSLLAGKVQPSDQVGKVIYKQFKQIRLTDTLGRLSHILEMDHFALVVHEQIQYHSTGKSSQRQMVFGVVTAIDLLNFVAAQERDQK
Nature of the test: Inhibition of full-length wild-type cystathionine beta-synthase (unknown origin) assessed as inhibition of H2S production by fluorescence assay in presence of S-adenosylmethionine.
As for `COc1cc(/C=C2\NC(=S)NC2=O)ccc1OC(C)=O`, the IC50 worked out at 83 µM. Then `COc1cc(/C=C2\N=C(SC)N(C)C2=O)ccc1O`, with 87 µM; and `COc1cc(/C=C2\NC(=S)NC2=O)ccc1O`, with 187 µM. With `O=C1NC(=S)N/C1=C\c1ccccc1` the figure was 170 µM; with `O=C1NC(=S)N/C1=C\c1ccc(O)c(O)c1`, 125 µM.

For `O=C1C=C(c2cc(Br)c(O)c(Br)c2)/C(=C/c2cc(Br)c(O)c(Br)c2)O1` [RUBROLIDE A], the IC50 worked out at 108 µM. Then `NC(=O)c1cc(Br)c(Br)[nH]1`, with 156 µM; and `C[C@@]12CCC(=O)c3coc(c31)C(=O)c1cc3cccc(OS(=O)(=O)O)c3cc12`, with 136 µM.

The IC50 is the point on the concentration scale where inhibition reaches its midpoint.
